Here are results for five compounds from patent US20110016579A1, “Gene of transporter selective to mugineic acid-iron complex” (SUNTORY LIMITED, priority 2005, published 2011).

In assay [1] the test system is HvYS1. The experiment in a line: Growth of fet3fet4 yeast (DDY4 strain) expressing HvYS1 on different iron sources. The class given is cell-based, barley (Hordeum vulgare L.). The following applies: 30° C., 4 days. From the text: Since DDY4 strain is an yeast that is defective in the divalent iron-absorption system, is unable to grow in an iron-limiting medium (Eide, D. et al., Proc. Natl. Acad. Sci. USA, 1996, vol. 93, pp. 5624-5628) and is unable to grow by taking advantage of mugineic acid-iron (III) complex (Loulergue, C., Gene 1998, vol. 225, pp. 47-57), the yeast having an activity power for selectively absorbing mugineic acid-iron complex can grow on a medium supplemented with mugineic acid-iron(III) complex but the yeast having no above-mentioned activity power cannot grow on the medium.
(§1) Since double mutant fet3fet4 (DDY4 strain) of budding yeast (Saccharomyces cerevisiae) is defective in two genes responsible for absorption of divalent iron (fet3 (a gene for absorbing divalent iron after converting trivalent iron into divalent iron) and fet4 (a gene for absorbing divalent iron as it is)), the yeast can grow neither on an iron-limiting medium (Eide, D. et al., Proc. Natl. Acad. Sci. USA, 1996, vol. 93, pp. 5624-5628) nor by taking advantage of iron complexed with mugineic acid (Loulergue, C., Gene, 1998, vol. 225, pp. 47-57). To investigate the function of HvYS1 in iron transport, the present inventors have studied, using DDY4 strain into which HvYS1 cDNA has been introduced, whether the DDY4 strain in which the gene is expressed is able to grow on a medium containing Fe(III).MA as sole source of iron.
The following three plasmids were independently introduced into each of DDY4 strain and DY1457 (wild) strain: (1) a plasmid into which HvYS1 cDNA cloned at the NotI site of the expression vector pFL61 (by ATCC Co.) was inserted; (2) a plasmid into which ZmYS1 cDNA (Curie, C. et al., Nature, 2001, vol. 49, pp. 346-349) cloned in the same pFL61 vector was inserted; and (3) the pFL61 vector as a reference into which none of the above-mentioned genes was inserted.
Subsequently, the inventors conducted cultivation tests by mixing three different iron sources, or Fe(III).citrate, Fe(III).MA, and Fe(III).NA, with the medium in order to determine substrate selectivity, if any, of HvYS1. The yeast was cultivated in minimum media—Ura supplemented with 50 μM Fe(III).citrate, 10 μM Fe(III).MA, or 10 μM Fe(II).NA, and 10 μM FeCl2 or FeCl3 as a blank. Also, 10 μM of BPDS that is a potent chelating agent of divalent iron was added to the medium supplemented with 10 μM of Fe(III).MA in order to investigate whether the growth of the yeast is inhibited. Fe(III).MA was prepared according to von Wiren, N. et al. , Biochem. Biophys. Acta, 1998, vol. 1371, pp. 143-155. Nicotinamine was purchased from T. Hasegawa Co., and Fe(II).NA was prepared according to Schaaf, G. et al. , J. Biol. Chem., 2004, vol. 279, pp. 9091-9096. The yeast was cultivated at 30° C. for 4 days. Three solutions of the yeast culture (diluted to optical densities (OD) of 0.2, 0.02 and 0.002, respectively, at a wavelength of 600 nm) were spotted on a plate.

Assay [2] concerns the target T1, ZmYS1 (Zea mays, UniProt Q9AY27).
T1 construct: expressed in transfected cells; host or cells: Saccharomyces cerevisiae fet3fet4 double mutant (DDY4 strain), vector pFL61
T1 sequence (Q9AY27 1-682): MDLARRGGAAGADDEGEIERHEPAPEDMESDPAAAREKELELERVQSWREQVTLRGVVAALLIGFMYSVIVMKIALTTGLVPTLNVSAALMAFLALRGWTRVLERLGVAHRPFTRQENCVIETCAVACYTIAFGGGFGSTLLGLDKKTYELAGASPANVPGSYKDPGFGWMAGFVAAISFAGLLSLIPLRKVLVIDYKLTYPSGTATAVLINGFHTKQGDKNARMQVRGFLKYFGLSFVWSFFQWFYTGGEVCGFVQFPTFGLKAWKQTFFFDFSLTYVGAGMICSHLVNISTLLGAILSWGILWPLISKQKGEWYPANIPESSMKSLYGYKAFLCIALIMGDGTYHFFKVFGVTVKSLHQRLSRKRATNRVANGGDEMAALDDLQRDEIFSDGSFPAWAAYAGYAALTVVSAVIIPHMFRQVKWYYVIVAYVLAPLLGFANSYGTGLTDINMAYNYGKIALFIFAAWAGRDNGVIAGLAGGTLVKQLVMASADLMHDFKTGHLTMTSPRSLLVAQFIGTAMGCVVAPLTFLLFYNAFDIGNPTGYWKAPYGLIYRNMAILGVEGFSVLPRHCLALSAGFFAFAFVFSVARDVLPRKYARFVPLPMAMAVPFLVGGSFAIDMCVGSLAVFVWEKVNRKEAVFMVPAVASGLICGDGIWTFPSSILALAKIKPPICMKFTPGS
The experiment in a line: Growth of fet3fet4 yeast (DDY4 strain) expressing ZmYS1 on different iron sources. The format is cell-based, maize. Particulars: DDY4 strain expressing ZmYS1, 10 μM, FIG. 3.
Description: as §1
The following three plasmids were independently introduced into each of DDY4 strain and DY1457 (wild) strain: (1) a plasmid into which HvYS1 cDNA cloned at the NotI site of the expression vector pFL61 (by ATCC Co.) was inserted; (2) a plasmid into which ZmYS1 cDNA (Curie, C. et al., Nature, 2001, vol. 49, pp. 346-349) cloned in the same pFL61 vector was inserted; and (3) the pFL61 vector as a reference into which none of the above-mentioned genes was inserted. […]

In assay [3] the test system is HvYS1. The experiment in a line: Electrophysiological activity (voltage clamp) in HvYS1-expressing Xenopus oocyte cells. The format is cell-based, barley (Hordeum vulgare L.). The following applies: final concentration of 50 μM, fixed voltage of −60 mV; compared with other mugineic acid-metal complexes and nicotianamine Fe(II) complex. From the text:
The activity power for selectively absorbing mugineic acid-iron complex may be also confirmed by observing cell membrane voltage changes using Xenopus oocyte cells. The voltage change of the cell membrane may be obtained by directly measuring the voltage difference between the inside and outside of the cell membrane by, for example, a membrane voltage clamp method, wherein the voltage change of the oocyte cell membrane occurs in accordance with the absorption of mugineic acid-iron complex via the transporter protein expressed in the oocyte cell after adding a solution containing mugineic acid-iron complex to the oocyte cell into which the transporter gene of the invention has been introduced. […]
Subsequently, the inventors have formed mugineic acid complexes of copper, zinc, nickel, manganese, and cobalt as substrates other than Fe(III).MA as in the case of iron in order to determine substrate selectivity, if any, of HvYS1 protein. The oocyte cells in which HvYS1 is expressed were set in a chamber filled with the ND-96 solution, and electrophysiological activity was measured after spraying 10 μL of each 5 mM substrate (final concentration of 50 μM). […] ORIGIN 6.1 software (by Microcal Software Co.) was used for programming and storage of voltage, and analysis of the recorded and stored data. […]
Target sequence in this assay (as listed by the source): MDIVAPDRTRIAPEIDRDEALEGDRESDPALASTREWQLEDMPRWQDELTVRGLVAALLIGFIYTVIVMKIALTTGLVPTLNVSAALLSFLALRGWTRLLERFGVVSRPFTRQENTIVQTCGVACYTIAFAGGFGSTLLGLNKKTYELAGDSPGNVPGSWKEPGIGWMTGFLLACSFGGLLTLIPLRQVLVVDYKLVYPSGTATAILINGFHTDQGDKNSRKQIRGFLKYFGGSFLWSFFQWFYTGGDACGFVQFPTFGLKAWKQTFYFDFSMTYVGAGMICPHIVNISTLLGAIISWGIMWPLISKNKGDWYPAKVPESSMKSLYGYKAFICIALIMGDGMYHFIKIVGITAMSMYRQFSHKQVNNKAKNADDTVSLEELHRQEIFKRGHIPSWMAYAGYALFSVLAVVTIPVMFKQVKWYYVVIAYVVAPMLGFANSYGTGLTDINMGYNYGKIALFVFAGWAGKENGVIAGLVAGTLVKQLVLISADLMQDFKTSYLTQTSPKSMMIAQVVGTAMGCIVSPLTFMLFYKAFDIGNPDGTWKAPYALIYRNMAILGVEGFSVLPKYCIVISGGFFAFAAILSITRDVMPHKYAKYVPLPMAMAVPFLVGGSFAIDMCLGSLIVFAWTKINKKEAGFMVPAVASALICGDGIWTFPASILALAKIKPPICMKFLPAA

As to `[Cl][Fe][Cl]` [FeCl2], the “growth of DDY4 strain expressing HvYS1 with the substance as sole iron source” value (“growth … as sole iron source” below) in assay [1] (10 μM in minimum media -Ura) was “did not grow”.
For the compound `[Cl][Fe]([Cl])[Cl]` [FeCl3], in assay [1] (10 μM in minimum media -Ura), the “growth … as sole iron source” value is “did not grow”.
For “citric acid-iron complex (iron-ammonium citrate complex) [Fe(III).citrate]”, the “growth … as sole iron source” value in assay [1] (50 μM in minimum media -Ura) is listed as “did not grow”.
For the compound “mugineic acid-iron(III) complex [Fe(III).MA]”, in assay [2], the “transport of the iron complex by ZmYS1” value is recorded as “transports”. For the same compound, in assay [1] (10 μM Fe(III).MA plus 10 μM BPDS (Fe(II) chelating agent)), the “growth of DDY4 strain expressing HvYS1 in the presence of BPDS” value is given as “grew”. Also, in assay [1] (10 μM in minimum media -Ura), the “growth … as sole iron source” value is listed as “grew at the same level as DDY4 strain expressing ZmYS1”. The “voltage change in HvYS1-expressing oocyte cells” value in assay [3] is recorded as “overwhelmingly strong voltage change”.
In the case of nicotianamine-iron complex [Fe(II).NA], the “transport of the iron complex by ZmYS1” value in assay [2] is reported as “transports”. Moreover, the “growth … as sole iron source” value in assay [1] (10 μM in minimum media -Ura) was “does not absorb Fe(II).NA, or growth was strongly inhibited”.
